Source: patent publication US20160279187A1, “CALPAIN INHIBITORS FOR IBD AND COLORECTAL CANCER TREATMENT” (UNIVERSITY OF HAWAII, priority 2013, published 2016)
Where a SMILES comes first, the peptide text is derived from it. The star is where a group is joined. Cbz = O=C(OCc1ccccc1)*; CH2F = FC*

Tested on: AOM/DSS induced colitis/CAC
Test: AOM/DSS induced colitis/CAC model
Assay type: in vivo, C57BL/6J mice
Conditions: for CAC pathology (blinded 4-point histological score) / total tumor volume (in words): day 63, vs vehicle control
Procedure: A mice colony generated from C57BL/6J mice (Jackson Laboratories) was maintained in the University of Hawaii vivarium. The mouse AOM/DSS induced colitis/CAC model was adapted from a previously described protocol (Fenouille, N. et al. J. Pathol. 227, 118-129, 2012). In brief, 8-10 wk old male mice were injected with AOM (A5486, Sigma) (12 mg/kg) on day 0 and were then treated with three 5 day cycles of 2% DSS (CAS#9011-18-1; MP Biomedicals, Santa Ana, Calif.) in drinking water alternated with regular water over 63 days. Mice in the intervention group were interperitonal injected 5 days per week with 0.75 mg/kg calpain-2 inhibitor (Calpain Inhibitor IV, zLLY-CH2F; Millipore EMD part number 208724) beginning on day 8 and then throughout the entire protocol. Control mice were injected with AOM on day 0 and received regular drinking water throughout the protocol. All animal protocols were approved by the University of Hawaii Institutional Animal Care and Use Committee.
Bone marrow derived macrophages (BMDM) were prepared as previously described by methods known to those skilled in the art. On day 5 of culture, 2×10^6 BMDM were seeded in 6-well plates and the following day were primed for 18 h with TNFα (20 ng/mL), followed by 1 h stimulation with E. faecalis (1 μg/mL; ATCC). Stimulation with E. faecalis was conducted in the presence of the zLLY-CH2F calpain-2 inhibitor (20 μg/mL) or DMSO as a control. Media was removed from treated BMDM, centrifuged at 300×g for 5 min and supernatent analyzed using the Cytometric Bead Array Mouse Inflammation Kit (BD Biosciences, San Jose, Calif.). Cytokine data were analyzed using Flowjo software (Ashland, Oreg.) and GraphPad Prism version 4.0 (GraphPad, La Jolla, Calif.). Cell pellets were lysed and analyzed for IκB and NFκB by Western blot as previously described (Miyazaki, T. et al. Journal of Atherosclerosis and Thrombosis 20, 228-237, 2013). In other experiments, mouse CT-26.WT and human HT-29 colon cancer cells were plated in 96-well plates at 10^3 cells/well with 20 μg/mL inhibitor or DMSO, followed by analyses for IκB and NFκB by Western blot as described above for BMDM. For proliferation assays, fresh media with 20 μg/mL inhibitor or DMSO were added every 2 d. Each day 4 wells were quantified using Celltiter MTS reagent (Promega) and the resulting signal was used to generate a proliferation curve. Calpain activity was measured using a Calpain activity assay kit (BioVision, Inc., Milpitas, Calif.) as previously described. Colons were harvested on day 4 and calpain activity measured. Enzyme-linked immunosorbant assay (ELISA) analyses of cecum hemoglobin has been previously described (Miyazaki, T. et al. Journal of Atherosclerosis and Thrombosis 20, 228-237, 2013).
On day 63, colons were dissected, cut longitudinally, and then were spread out on clear plastic. The colons were washed with PBS using transfer pipettes and images captured using an Infinity 2 microscope mounted camera (Lumenara, Madrid, Spain) in line with a Stemi 2000-C dissecting scope (Zeiss, Jena, Germany). Separate images were assembled into continuous colon images using Photoshop software (Adobe Systems Inc.). For histology, colon tissues were washed with PBS and fixed in 10% buffered formalin. Standard H&E staining of paraffin-embedded tissue samples was conducted as previously described (Leloup, L. & Wells, A., Expert Opinion on Therapeutic Targets 15, 309-323, 2011). Five H&E stained sections from each mouse were blindly scored for colitis pathology as previously described (Liu, T., Mendes, D. E. & Berkman, C. E. Int. J. Oncol. 44, 467-472, 2014). […]

CC(C)C[C@H](NC(=O)OCc1ccccc1)C(=O)N[C@@H](CC(C)C)C(=O)N[C@@H](Cc1ccc(O)cc1)C(=O)CF [zLLY-CH2F, Z-LLY-CH2F] (Cbz-Leu-Leu-Tyr-CH2F)
weight recovery after each administration of DSS (0.75 mg/kg i.p. from day 8, vs vehicle control): significant increase | average number of tumors/mouse (day 63): 2 tumors/mouse | hemoglobin in cecums by ELISA (bloody diarrhea) (day 63, 0.75 mg/kg i.p., vs vehicle control): significantly lower | total tumor volume reduced by (day 63, i.p. 5 days on/2 days off from day 8, vs vehicle control): 70% | CAC pathology (blinded 4-point histological score): significantly lower | total tumor volume (in words): significantly lower | CAC pathology (blinded 4-point histological score) (listed as calpain-2 inhibitor): significantly alleviated | total tumor volume (in words) (listed as calpain-2 inhibitor): significant reduction | total tumor volume (in words) (listed as m-calpain inhibitor): very significant tumor reduction | colitis pathology and inflammatory infiltration (histology) (day 63 colon, vs vehicle control): significant decrease
